# Experiments:
# Nrf2 [1] = assay: Ex-vivo Nrf2 activation of purified mouse T cells, real-time PCR of Nrf2 target genes; assay type: cell-based
# Description: (§1) FIG. 11. […] RNA isolated from these cells was analyzed by quantitative real-time PCR for expression of Nrf2 target genes, NQO1, HO-1 and GCLM. […] Furthermore, we treated peripheral blood mononuclear cells (PBMCs) from healthy individuals and treated them with CDDO-Me (Bardoxolone), an Nrf2 activator related to triterpenopid derivative CDDO-Im.
# Antioxidant Gene Expression Analyses. Total RNA ([…]) from purified T cells was isolated with the RNeasy mini kit (Qiagen, Valencia, Calif.) and reverse transcribed using a high capacity cDNA synthesis kit (Life Technologies). A gene-specific TaqMan primer and probe sets were used to assess transcriptional status of Nrf2, Nqo1, Ho-1, Gclm, and Gclc in Quantstudio 12K flex real-time PCR (Life Technologies). The absolute expression values for each gene were normalized to that of b-actin and the relative gene expression values calculated.
# acute kidney injury = conditions: pharmacological activation of Nrf2 regulated antioxidant response; cited from earlier work
# Nrf2 [2] = assay: Nrf2 target gene expression in treated human peripheral blood mononuclear cells; assay type: cell-based
# Description: as §1
# T cells = conditions: cited from earlier work; for TNF-a and IFN-g production: after CD3/CD28 activation; for T helper phenotype skewing: pharmacologic activation of Nrf2
# [3] = purified T cells from wild type mice, 20 nM and 50 nM, 24 hours
smiles,measurement,setting,value
CC1(C)CC[C@]2(C(=O)n3ccnc3)CC[C@]3(C)[C@H](C(=O)C=C4[C@@]5(C)C=C(C#N)C(=O)C(C)(C)[C@@H]5CC[C@]43C)[C@@H]2C1 [CDDO-Im],HO-1 mRNA expression,Nrf2 [1]; [3],significant increase
same,NQO1 mRNA expression,Nrf2 [1]; [3],significant increase
same,activating Nrf2 regulated antioxidant gene expression,"Nrf2 [1]; purified mouse T cells, 20 and 50 μM",significantly effective
same,protection from acute kidney injury,acute kidney injury,can protect from acute kidney injury
same,activating Nrf2 regulated antioxidant gene expression,"Nrf2 [2]; human PBMCs, 20 and 50 μM",significantly effective
"COC(=O)[C@]12CCC(C)(C)C[C@H]1[C@H]1C(=O)C=C3[C@@]4(C)C=C(C#N)C(=O)C(C)(C)[C@@H]4CC[C@@]3(C)[C@]1(C)CC2 [CDDO-Me, bardoxolone methyl]",gene expression of GCLM,"Nrf2 [2]; PBMCs from healthy individuals, p=0.01",significant increase
same,gene expression of NQO1,"Nrf2 [2]; PBMCs from healthy individuals, p=0.02",significant increase
same,gene expression of HO-1,"Nrf2 [2]; PBMCs from healthy individuals, p=0.05",significant increase
COc1ccc(O)c(C(C)(C)C)c1 [butylated hydroxyanisole],TNF-a and IFN-g production,T cells,suppress
same,T helper phenotype skewing,T cells,skew T cells toward a Th2 type phenotype
"CC(C)(C)c1cc(O)ccc1O [tertbutylhydroquinone, tert-butylhydroquinone]",TNF-a and IFN-g production,T cells,suppress
same,T helper phenotype skewing,T cells,skew T cells toward a Th2 type phenotype

# Reference: US20200120909A1, “COMPOSITIONS AND METHODS FOR THE STUDY AND TREATMENT OF ACUTE KIDNEY INJURY” (THE JOHNS HOPKINS UNIVERSITY, priority 2014, published 2020)
